EC50 and IC50 data for 22 molecules are collected here from patent US11267825B2 (AICURIS GMBH & CO. KG, priority 2017, dated 2022).

Like-named read-outs stand apart in the source and are kept apart here. Bounds are passed on as bounds.

Experiment [1] concerns HBV. Nature of the experiment: Determination of HBV DNA from the supernatants of HepAD38 cells (anti-HBV activity). As to conditions: Hepatitis B virus, read-out: Cell Activity (EC50). It counts as cell-based, hepatitis B virus. In a few lines: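 HepAD38 cells (60,000/well) were treated with half-log compound dilutions in tetracycline-free medium to induce HBV production. On day 6, HBV DNA was purified from filtered supernatant and quantified by real-time PCR against plasmid standards. EC50 values came from non-linear regression of relative copy numbers, typically from three experiments in triplicate.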

For experiment [2], the target named is HBV core protein (UniProt P03146). It is filed as biochemical. To be noted: read-out: Assembly Activity (IC50); BODIPY-FL labelled core protein, assembly started with NaCl, read after 6 min. In outline: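 Fluorescence-quenching assembly assay using E. coli-expressed core protein 1–149 plus Cys150, labelled with BODIPY-FL maleimide, at 1.0–2.0 μM in 50 mM HEPES pH 7.5, 0.5% DMSO. Assembly started with NaCl to […]; fluorescence (ex 477/em 525 nm) read after 6 min. EC50 by non-linear regression, 8-point 0.5-log dilutions.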
HBV core protein, sequence (P03146 whole entry, looked up): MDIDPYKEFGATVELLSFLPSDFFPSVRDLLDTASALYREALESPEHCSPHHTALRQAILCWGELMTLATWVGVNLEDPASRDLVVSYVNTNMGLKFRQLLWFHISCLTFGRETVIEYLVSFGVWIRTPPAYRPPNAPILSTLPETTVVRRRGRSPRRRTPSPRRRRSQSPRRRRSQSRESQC

Setting [3] is: 144 h, HBV DNA in HepAD38 supernatant at day 6.

As for `Cc1nc2c(s1)CN(C(=O)c1cc3c(C)cc(F)cc3[nH]1)CC2` [Example 190, 6-fluoro-4-methyl-2-{2-methyl-4H,5H,6H,7H-[1,3]thiazolo[5,4-c]pyridine-5-carbonyl}-1H-indole], the 50% effective concentration (EC50) in experiment [1] (setting [3]) is less than 1 µM. Also, in experiment [2], the IC50 is less than 5 µM.

With `CNC(=O)C1(CNc2nc3c(s2)CN(C(=O)c2cc4ccccc4[nH]2)CC3)CCC1` [Example 428, 1-({[5-(1H-indole-2-carbonyl)-4H,5H,6H,7H-[1,3]thiazolo[5,4-c]pyridin-2-yl]amino}methyl)-N-methylcyclobutane-1-carboxamide], in experiment [1] (setting [3]), the EC50 was less than 1 µM. Moreover, the IC50 in experiment [2] was less than 5 µM.

As to `CC(CO)CNc1nc2c(s1)CN(C(=O)c1cc3ccccc3[nH]1)CC2` (centres unmarked) [Example 217, 3-{[5-(1H-indole-2-carbonyl)-4H,5H,6H,7H-[1,3]thiazolo[5,4-c]pyridin-2-yl]amino}-2-methylpropan-1-ol], the concentration giving a half-maximal response (EC50) in experiment [1] (setting [3]) was less than 1 µM. In experiment [2], the 50% inhibitory concentration (IC50) was less than 5 µM.

Take `Cc1cc(F)cc2[nH]c(C(=O)N3CCc4nc(NC5(CO)CCC5)sc4C3)cc12` [Example 298, (1-{[5-(6-fluoro-4-methyl-1H-indole-2-carbonyl)-4H,5H,6H,7H-[1,3]thiazolo[5,4-c]pyridin-2-yl]amino}cyclobutyl)methanol]: the EC50 in experiment [1] (setting [3]) was less than 1 µM. In experiment [2], the half-inhibitory concentration (IC50) is less than 5 µM.

Turning to `O=C(c1cc2c(F)ccc(F)c2[nH]1)N1CCc2nc(NCC3CCOC3)sc2C1` (centres unmarked) [Example 122, 5-(4,7-difluoro-1H-indole-2-carbonyl)-N-[(oxolan-3-yl)methyl]-4H,5H,6H,7H-[1,3]thiazolo[5,4-c]pyridin-2-amine], the 50% effective concentration (EC50) in experiment [1] (setting [3]) is less than 1 µM. Also, the half-inhibitory concentration (IC50) in experiment [2] is less than 5 µM.

For the molecule `CC1(C(=O)Nc2nc3c(s2)CN(C(=O)c2cc4ccccc4[nH]2)CC3)CC1` [Example 274, N-[5-(1H-indole-2-carbonyl)-4H,5H,6H,7H-[1,3]thiazolo[5,4-c]pyridin-2-yl]-1-methylcyclopropane-1-carboxamide], the EC50 in experiment [1] (setting [3]) was less than 1 µM. Further, in experiment [2], the IC50 is less than 5 µM.

For `Nc1nc2c(s1)CN(C(=O)c1cc3c(Cl)c(F)ccc3[nH]1)CC2` [Example 80, 5-(4-chloro-5-fluoro-1H-indole-2-carbonyl)-4H,5H,6H,7H-[1,3]thiazolo[5,4-c]pyridin-2-amine], the concentration giving a half-maximal response (EC50) in experiment [1] (setting [3]) is less than 1 µM. Moreover, the IC50 in experiment [2] is less than 5 µM.

With `Cc1cc(F)cc2[nH]c(C(=O)N3CCc4nc(NCC5(O)CCC5)sc4C3)cc12` [Example 312, 1-({[5-(6-fluoro-4-methyl-1H-indole-2-carbonyl)-4H,5H,6H,7H-[1,3]thiazolo[5,4-c]pyridin-2-yl]amino}methyl)cyclobutan-1-ol], the EC50 in experiment [1] (setting [3]) is less than 1 µM. In addition, in experiment [2], the concentration for half-maximal inhibition (IC50) is less than 5 µM.

`Cc1nc2c(s1)CN(C(=O)c1cc3c(Cl)cccc3[nH]1)CC2` [Example 211, 4-chloro-2-{2-methyl-4H,5H,6H,7H-[1,3]thiazolo[5,4-c]pyridine-5-carbonyl}-1H-indole]: the EC50 in experiment [1] (setting [3]) is less than 1 µM. Moreover, the IC50 in experiment [2] is less than 5 µM.

In the case of `COC1(CNc2nc3c(s2)CN(C(=O)c2cc4ccccc4[nH]2)CC3)CCOC1` (centres unmarked) [Example 246, 5-(1H-indole-2-carbonyl)-N-[(3-methoxyoxolan-3-yl)methyl]-4H,5H,6H,7H-[1,3]thiazolo[5,4-c]pyridin-2-amine], the half-maximal effective concentration (EC50) in experiment [1] (setting [3]) is less than 1 µM. Moreover, the IC50 in experiment [2] is less than 5 µM.

`CCC(C)(CO)CNc1nc2c(s1)CN(C(=O)c1cc3ccccc3[nH]1)CC2` (centres unmarked) [Example 216, 2-({[5-(1H-indole-2-carbonyl)-4H,5H,6H,7H-[1,3]thiazolo[5,4-c]pyridin-2-yl]amino}methyl)-2-methylbutan-1-ol]: in experiment [1] (setting [3]), the EC50 was less than 1 µM. In experiment [2], the IC50 is 5 to 10 µM.

For the molecule `CC(C)OC(=O)[C@H](C)NP(=O)(OCC1(CNc2nc3c(s2)CN(C(=O)c2cc4c(F)cc(F)cc4[nH]2)CC3)CC1)Oc1ccccc1` (stereo partly drawn) [Example 37, Propan-2-yl (2S)-2-[({[1-({[5-(4,6-difluoro-1H-indole-2-carbonyl)-4H,5H,6H,7H-[1,3]thiazolo[5,4-c]pyridin-2-yl]amino}methyl)cyclopropyl]methoxy}(phenoxy)phosphoryl)amino]propanoate], in experiment [1] (HePAD38, 144 h), the EC50 was less than 1 µM. The IC50 in experiment [2] was less than 100 µM.

Turning to `CC1(C)OCC(CNc2nc3c(s2)CN(C(=O)c2cc4ccccc4[nH]2)CC3)O1` (centres unmarked) [Example 205, N-[(2,2-dimethyl-1,3-dioxolan-4-yl)methyl]-5-(1H-indole-2-carbonyl)-4H,5H,6H,7H-[1,3]thiazolo[5,4-c]pyridin-2-amine], in experiment [1] (setting [3]), the half-maximal effective concentration (EC50) is less than 1 µM. For the same molecule, the half-maximal inhibitory concentration (IC50) in experiment [2] lay in the range of 5 to 10 µM.

Consider `Cc1cc(F)cc2[nH]c(C(=O)N3CCc4nc(NCC5CCOC5)sc4C3)cc12` (centres unmarked) [Example 120, 5-(6-fluoro-4-methyl-1H-indole-2-carbonyl)-N-[(oxolan-3-yl)methyl]-4H,5H,6H,7H-[1,3]thiazolo[5,4-c]pyridin-2-amine], for which the EC50 in experiment [1] (setting [3]) is less than 1 µM. The 50% inhibitory concentration (IC50) in experiment [2] was less than 5 µM.

Consider `C#Cc1cccc2[nH]c(C(=O)N3CCc4nc(N)sc4C3)cc12` [Example 14, 5-(4-ethynyl-1H-indole-2-carbonyl)-4H,5H,6H,7H-[1,3]thiazolo[5,4-c]pyridin-2-amine], for which the EC50 in experiment [1] (setting [3]) lay in the range of 1 to 10 µM. In addition, in experiment [2], the IC50 is less than 100 µM.

Turning to `CCc1cccc2[nH]c(C(=O)N3CCc4nc(NCC5CCOC5)sc4C3)cc12` (centres unmarked) [Example 115, 5-(4-ethyl-1H-indole-2-carbonyl)-N-[(oxolan-3-yl)methyl]-4H,5H,6H,7H-[1,3]thiazolo[5,4-c]pyridin-2-amine], the EC50 in experiment [1] (setting [3]) was less than 1 µM. The IC50 in experiment [2] is less than 5 µM.

Take `COc1cccc2[nH]c(C(=O)N3CCc4nc(C)sc4C3)cc12` [Example 194, 4-methoxy-2-{2-methyl-4H,5H,6H,7H-[1,3]thiazolo[5,4-c]pyridine-5-carbonyl}-1H-indole]: the concentration for a half-maximal effect (EC50) in experiment [1] (setting [3]) is less than 100 µM. Further, the 50% inhibitory concentration (IC50) in experiment [2] was less than 100 µM.

In the case of `Cc1nc2c(s1)CN(C(=O)c1cc3c(Cl)cc(F)cc3[nH]1)CC2` [Example 187, 4-chloro-6-fluoro-2-{2-methyl-4H,5H,6H,7H-[1,3]thiazolo[5,4-c]pyridine-5-carbonyl}-1H-indole], in experiment [1] (setting [3]), the concentration for a half-maximal effect (EC50) is less than 1 µM. Further, the IC50 in experiment [2] was less than 5 µM.

For the molecule `CC(=O)N1CCC(CNc2nc3c(s2)CN(C(=O)c2cc4ccccc4[nH]2)CC3)C1` (centres unmarked) [Example 391, 1-[3-({[5-(1H-indole-2-carbonyl)-4H,5H,6H,7H-[1,3]thiazolo[5,4-c]pyridin-2-yl]amino}methyl)pyrrolidin-1-yl]ethan-1-one], the half-maximal effective concentration (EC50) in experiment [1] (setting [3]) is less than 1 µM. Also, the IC50 in experiment [2] was less than 5 µM.

For `CC1(C)CC1C(=O)Nc1nc2c(s1)CN(C(=O)c1cc3ccccc3[nH]1)CC2` (centres unmarked) [Example 267, N-[5-(1H-indole-2-carbonyl)-4H,5H,6H,7H-[1,3]thiazolo[5,4-c]pyridin-2-yl]-2,2-dimethylcyclopropane-1-carboxamide], the EC50 in experiment [1] (setting [3]) was less than 1 µM. Besides, in experiment [2], the IC50 was 5 to 10 µM.

As to `O=C(c1cc2ccccc2[nH]1)N1CCc2nc(N3CCOCC3)sc2C1` [Example 166, 2-[2-(morpholin-4-yl)-4H,5H,6H,7H-[1,3]thiazolo[5,4-c]pyridine-5-carbonyl]-1H-indole], the concentration for a half-maximal effect (EC50) in experiment [1] (setting [3]) was in the range of 1 to 10 µM. In addition, the IC50 in experiment [2] was less than 100 µM.

Take `CCc1cccc2[nH]c(C(=O)N3CCc4nc(NC(=O)C5CCOCC5)sc4C3)cc12` [Example 334, N-[5-(4-ethyl-1H-indole-2-carbonyl)-4H,5H,6H,7H-[1,3]thiazolo[5,4-c]pyridin-2-yl]oxane-4-carboxamide]: the 50% effective concentration (EC50) in experiment [1] (setting [3]) was less than 1 µM. For the same molecule, the half-maximal inhibitory concentration (IC50) in experiment [2] was less than 5 µM.
